Assay results reported in US4013663A, “Isoquinoline compounds” (priority 1974, dated 1977).

Legend:
[1] = test system: β-receptors of the bronchial system; assay: inhibition of the isoprenalin effect on the bronchial system; type: in vivo, guinea pig; details: for dosage relationships in comparison with the comparison compound: Table 2, versus F; for influence of heart-active doses on the bronchial system: at heart-active doses; for Heart: Bronchial System (activity relationship, heart = 1): ratio of effective doses from Table 1, given as 1: x
Protocol: (§1) The particular β-receptor blocking activity on the heart in comparison to that on the blood vessel system was measured by the taking of an EKG or by measurement of the blood pressure in the same animal (guinea pigs) [cf. J. R. C. Baird et al., J. Pharm. Pharmac. […] For investigation of broncho-constrictor activity, the inhibition of the isoprenalin effect on the bronchial system of the guinea pig is employed [cf. H. Konzett et al., Arch. exp. Path. Pharmak.

[2] = test system: β-receptors of the blood vessel system; assay: β-receptor blocking activity on the blood vessel system (blood pressure measurement in the same animal); type: in vivo, guinea pig; details: ratio of effective doses from Table 1, given as 1: x
Protocol: as §1

[3] = in vivo; details: mouse, in vivo, iv
Protocol: (§2) The investigations on toxicity were carried out by intravenous administration to albino mice.

[4] = test system: albino mice; assay: in vivo; details: Table 3
Protocol: as §2

Row | Compound | dosage relationships in comparison with the comparison compound [1] | influence of heart-active doses on the bronchial system [1] | Heart: Bronchial System (activity relationship, heart = 1) [1] | Heart: Blood vessels (activity relationship, heart = 1) [2] | LD50 [3] | toxicity and activity in comparison with E, F, and G [4]
1 | CC(=O)N1CCc2cc(OCC(O)CNC(C)C)ccc2C1 (stereo not shown) [Substance A, 2-acetyl-1,2,3,4-tetrahydro-6-(2-hydroxy-3-isopropylamino-propoxy)-isoquinoline] | essentially more favorable than for the comparison compound | does not lead to a negative influence on the bronchial system | 5.5 | 6.2 |  | 
2 | COc1cc2c(cc1OCC(O)CNC(C)C)CCN(C(C)=O)C2 (stereo not shown) [Substance B, 2-acetyl-1,2,3,4-tetrahydro-6-(2-hydroxy-3-isopropylamino-propoxy)-7-methoxy-isoquinoline] | essentially more favorable than for the comparison compound | does not lead to a negative influence on the bronchial system | > 7.2 | 1.8 |  | 
3 | CC(C)NCC(O)COc1cccc2c1CCN(C=O)C2 (stereo not shown) [Substance C, 2-formyl-1,2,3,4-tetrahydro-5-(2-hydroxy-3-isopropylamino-propoxy)-isoquinoline] |  |  |  |  | 148 mg/kg | less toxic at higher activity
4 | CC(C)(C)NCC(O)COc1cccc2c1CCN(C=O)C2 (stereo not shown) [Substance D, 2-formyl-1,2,3,4-tetrahydro-5-(2-hydroxy-3-tert.-butylaminopropoxy)-isoquinoline] |  |  |  |  | 128 mg/kg | less toxic at higher activity
5 | CC(C)NCC(O)COc1cccc2[nH]ccc12 (stereo not shown) [Substance E, prindolol, reference compound] |  |  |  |  | 22.6 mg/kg | 
6 | CC(C)NCC(O)COc1cccc2ccccc12 (stereo not shown) [Substance F, propranolol, reference compound] |  |  | 0.15 | 1 |  | 
7 | CC(=O)Nc1ccc(OCC(O)CNC(C)C)cc1 (stereo not shown) [Substance G, practolol, reference compound] |  |  |  |  | 121 mg/kg | 
